The numbers were not newly measured in patent US7109171B2, “Methods for treating FSH related conditions with GnRH antagonists” (Praecis Pharmaceuticals Inc., priority 2000, dated 2006), which cites them from elsewhere.

Square brackets hold non-standard residues; d marks the D form. Peptide text beside a SMILES is read from it. dPhe(4-Cl) = N[C@H](Cc1ccc(Cl)cc1)C(=O)O; d2Nal = N[C@H](Cc1ccc2ccccc2c1)C(=O)O; dCit = NC(=O)NCCC[C@@H](N)C(=O)O; d3Pal = N[C@H](Cc1cccnc1)C(=O)O

For one series, the system named is FSH. The note with it: single bolus injection.
For a further series, the system named is LH. The note with it: in vivo.

For Nal-Glu, the “effect on FSH levels” value in the series on FSH is “did not significantly affect”. For the same compound, the “effect on LH levels” value in the series on LH was “reduced”.
Turning to `CC(=O)N[C@H](Cc1ccc2ccccc2c1)C(=O)N[C@H](Cc1ccc(Cl)cc1)C(=O)N[C@H](Cc1cccnc1)C(=O)N[C@@H](CO)C(=O)N[C@@H](Cc1ccc(O)cc1)C(=O)N[C@H](CCCNC(N)=O)C(=O)N[C@@H](CC(C)C)C(=O)N[C@@H](CCCNC(=N)N)C(=O)N1CCC[C@H]1C(=O)N[C@H](C)C(N)=O` [Cetrorelix] (Ac-[d2Nal][dPhe(4-Cl)][d3Pal]SY[dCit]LRP[dA]-NH2), the “effect on FSH levels” value in the series on FSH was “did not significantly affect”. For the same compound, the “effect on LH levels” value in the series on LH is recorded as “reduced”.
